This is an account of results in patent US20240270740A1, “INHIBITORS OF CYCLIC GMP-AMP SYNTHASE AND USES THEREOF” (Ventus Therapeutics U.S., Inc., priority 2022, published 2024).

A value given as a limit tells only on which side of the number the result lay.

The test deals with hcGAS (Homo sapiens, UniProt Q8N884). Nature of the test: hcGAS LCMS assay (direct measurement of cGAMP production). The conditions noted are these: 0.5 nM hcGAS, 100 μM ATP, 100 μM GTP, 25 nM dsDNA, 4 h incubation. It counts as biochemical. How it is done: cGAS catalyzes the cyclization of ATP and GTP to produce cGAMP, which is the activating ligand of STING. Human cGAS (hcGAS) inhibition can thus be quantified by measuring how much cGAMP is formed either indirectly, by monitoring ATP-depletion as in the hcGAS Kinase-Glo assay (as described below), or directly, such as using the hcGAS LCMS assay (as described below).
hcGAS, sequence (Q8N884 whole entry): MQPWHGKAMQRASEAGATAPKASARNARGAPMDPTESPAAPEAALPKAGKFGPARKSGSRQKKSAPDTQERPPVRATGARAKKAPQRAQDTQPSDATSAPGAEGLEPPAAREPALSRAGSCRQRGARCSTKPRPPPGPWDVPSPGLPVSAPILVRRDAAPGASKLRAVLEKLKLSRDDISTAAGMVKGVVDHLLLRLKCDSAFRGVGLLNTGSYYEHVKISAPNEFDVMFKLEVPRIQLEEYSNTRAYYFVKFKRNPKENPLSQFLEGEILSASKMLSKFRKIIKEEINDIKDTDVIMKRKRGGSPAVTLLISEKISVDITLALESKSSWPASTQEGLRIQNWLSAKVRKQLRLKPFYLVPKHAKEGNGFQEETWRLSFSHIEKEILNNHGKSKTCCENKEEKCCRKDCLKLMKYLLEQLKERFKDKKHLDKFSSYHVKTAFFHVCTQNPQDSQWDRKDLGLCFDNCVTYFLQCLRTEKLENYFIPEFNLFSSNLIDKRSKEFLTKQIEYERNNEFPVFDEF
Compounds were tested for their h-cGAS inhibition activity using direct measurement of cGAMP production by LC/MS. Briefly, compounds were incubated with enzyme and substrates for 4 hours (see Table C), before the reaction was stopped with 3 volumes of 70/30 Acetonitrile/H2O mix containing 0.15 mM cGAMP-^13C10^5N5 as internal standard and mixed for […]. After centrifugation (3700 rpm, 10 min, 10° Celsius), […] of each reaction was collected and mixed to equal volume of Acetonitrile. Samples were then analyzed on Qexective (Column: XBridge BEH Amide Column, 130 Å, 3.5 μm, 3 mm×50 mm, Mobile phase A: 10 mM Ammonium acetate in 95/5% H2O/Acetonitrile (0.5% DMSO), Mobile phase B: Acetonitrile (0.5% DMSO).
The results of the assay, expressed as IC50 values, are reported in Table D with the following designations: A represents an IC50 value<0.005 μM; B represents an IC50 value≥0.005 μM and <0.02 μM, C represents an IC50 value≥0.02 μM and <0.06 μM; D represents an IC50 value≥0.06 and <0.2 μM; E represents an IC50 value≥0.2.
For orientation: IC50 means the concentration needed to halve the response being measured. The low end stands for greater potency, the high end for weaker potency. Regarding `COC[C@@H](C)Nc1cc(C(=O)Nc2nnc(-n3nccc3CO)s2)oc(=O)c1OC` [Compound 142, (R)—N-(5-(5-(hydroxymethyl)-1H-pyrazol-1-yl)-1,3,4-thiadiazol-2-yl)-3-methoxy-4-((1-methoxypropan-2-yl)amino)-2-oxo-2H-pyran-6-carboxamide], the IC50 lay within 20 to 60 nM. Take `COc1c(NC2CCC23COC3)cc(C(=O)Nc2nnc(-n3nccc3C)s2)oc1=O` (racemic) [Rac-56, 4-((2-oxaspiro[3.3]heptan-5-yl)amino)-3-methoxy-N-(5-(5-methyl-1H-pyrazol-1-yl)-1,3,4-thiadiazol-2-yl)-2-oxo-2H-pyran-6-carboxamide]: the IC50 lay within 5 to 20 nM. Then `COc1c(N[C@@H]2c3ccccc3C[C@@H]2O)cc(C(=O)Nc2nnc(-n3nccc3C)s2)oc1=O` (racemic) [Rac-28, 4-(((cis)-2-hydroxy-2,3-dihydro-1H-inden-1-yl)amino)-3-methoxy-N-(5-(5-methyl-1H-pyrazol-1-yl)-1,3,4-thiadiazol-2-yl)-2-oxo-2H-pyran-6-carboxamide], with not below 200 nM; and `COc1c(NCC2(OC)CC2)cc(C(=O)Nc2nnc(-n3nccc3C)s2)oc1=O` [Compound 190], with 5 to 20 nM. Then `COc1c(N[C@@H](C)[C@H](C)OC)cc(C(=O)Nc2nnc(-n3nccc3C)s2)oc1=O` [Compound 163], with 60 to 200 nM. As to `COc1c(N[C@H]2CCC[C@H]2OC)cc(C(=O)Nc2nnc(-n3nccc3C)s2)oc1=O` (single isomer, unassigned) [214*], the IC50 lay in the range of 5 to 20 nM.

The molecule `COC[C@@H](C)Nc1cc(C(=O)Nc2nnc(-c3sccc3Cl)s2)oc(=O)c1OC` [Compound 94, (R)—N-(5-(3-chlorothiophen-2-yl)-1,3,4-thiadiazol-2-yl)-3-methoxy-4-((1-methoxypropan-2-yl)amino)-2-oxo-2H-pyran-6-carboxamide] returned an IC50 of 5 to 20 nM. Next, `COCC(COC)Nc1cc(C(=O)Nc2nnc(-c3c(Cl)ccn3C)s2)oc(=O)c1OC` [Compound 84, N-(5-(3-chloro-1-methyl-1H-pyrrol-2-yl)-1,3,4-thiadiazol-2-yl)-4-((1,3-dimethoxypropan-2-yl)amino)-3-methoxy-2-oxo-2H-pyran-6-carboxamide]: less than 5 nM; `COC[C@@H](c1ccccc1)N1CCOc2c1cc(C(=O)Nc1nnc(-n3nccc3C)s1)oc2=O` [Compound 227, (R)-1-(2-methoxy-1-phenylethyl)-N-(5-(5-methyl-1H-pyrazol-1-yl)-1,3,4-thiadiazol-2-yl)-5-oxo-1,2,3,5-tetrahydropyrano[3,4-b][1,4]oxazine-7-carboxamide]: less than 5 nM; `COCC1(Nc2cc(C(=O)Nc3nnc(-n4nccc4C)s3)oc(=O)c2OC)CCCC1` [Compound 152, 3-methoxy-4-((1-(methoxymethyl)cyclopentyl)amino)-N-(5-(5-methyl-1H-pyrazol-1-yl)-1,3,4-thiadiazol-2-yl)-2-oxo-2H-pyran-6-carboxamide]: 5 to 20 nM.

`COc1c(N2CC[C@H](OC)C2=O)cc(C(=O)Nc2nnc(-n3nccc3C)s2)oc1=O` [Compound 151, 5-methoxy-4-[(3S)-3-methoxy-2-oxopyrrolidin-1-yl]-N-[5-(5-methylpyrazol-1-yl)-1,3,4-thiadiazol-2-yl]-6-oxopyran-2-carboxamide] came in with an IC50 of 5 to 20 nM. For the molecule `COc1c(N[C@H]2CCC[C@@H]2OC)cc(C(=O)Nc2nnc(-n3nccc3C)s2)oc1=O` (single isomer, unassigned) [4*], the IC50 lay within 5 to 20 nM. Next, “4-(((1S,2R)-2-(hydroxymethyl)cyclopentyl)amino)-3-methoxy-N-(5-(5-methyl-1H-pyrazol-1-yl)-1,3,4-thiadiazol-2-yl)-2-oxo-2H-pyran-6-carboxamide [Rac-55]”: not below 200 nM. For the molecule `COc1c(N[C@@H]2CCC[C@@H]2OC)cc(C(=O)Nc2nnc(-n3nccc3C)s2)oc1=O` (single isomer, unassigned) [215*], the IC50 was 5 to 20 nM. Molecule `COc1c(N[C@H]2CC[C@@H](OC)C2)cc(C(=O)Nc2nnc(-n3nccc3C)s2)oc1=O` (single isomer, unassigned) [124*] registered an IC50 of 5 to 20 nM. Next, `COc1c(N2CCCCC2=O)cc(C(=O)Nc2nnc(-n3nccc3C)s2)oc1=O` [Compound 96]: less than 5 nM; `COC[C@@H](Nc1cc(C(=O)Nc2nnc(-n3nccc3C)s2)oc(=O)c1OC)C1CC1` (single isomer, unassigned) [Compound 22*]: less than 5 nM; `COCCOc1c(N[C@@H](COC)c2ccccc2)cc(C(=O)Nc2nnc(-c3c(Cl)ccn3C)s2)oc1=O` [Compound 201, (R)—N-(5-(3-chloro-1-methyl-1H-pyrrol-2-yl)-1,3,4-thiadiazol-2-yl)-4-((2-methoxy-1-phenylethyl)amino)-3-(2-methoxyethoxy)-2-oxo-2H-pyran-6-carboxamide]: less than 5 nM.

`COc1c(NC2CC3(COC3)C2)cc(C(=O)Nc2nnc(-n3nccc3C)s2)oc1=O` [Compound 50, 4-((2-oxaspiro[3.3]heptan-6-yl)amino)-3-methoxy-N-(5-(5-methyl-1H-pyrazol-1-yl)-1,3,4-thiadiazol-2-yl)-2-oxo-2H-pyran-6-carboxamide]: the IC50 was 60 to 200 nM. Then `Nc1ccnn1-c1nnc(NC(=O)c2cc(NC34CC(C3)C4)c(OCCO)c(=O)o2)s1` [Compound 177, N-(5-(5-amino-1H-pyrazol-1-yl)-1,3,4-thiadiazol-2-yl)-4-(bicyclo[1.1.1]pentan-1-ylamino)-3-(2-hydroxyethoxy)-2-oxo-2H-pyran-6-carboxamide], with less than 5 nM. Next, `COCC1(Nc2cc(C(=O)Nc3nnc(-n4nccc4C)s3)oc(=O)c2OC)COC1` [Compound 98, 3-methoxy-4-((3-(methoxymethyl)oxetan-3-yl)amino)-N-(5-(5-methyl-1H-pyrazol-1-yl)-1,3,4-thiadiazol-2-yl)-2-oxo-2H-pyran-6-carboxamide]: 5 to 20 nM; `COc1c(N[C@@H]2CCC[C@@H]2OC)cc(C(=O)Nc2nnc(-c3c(Cl)ccn3C)s2)oc1=O` (single isomer, unassigned) [48*]: 5 to 20 nM.

`COC[C@@H](Nc1cc(C(=O)Nc2nnc(-n3nccc3C)s2)oc(=O)c1OC)c1ccccc1` [Compound 49, (S)-3-methoxy-4-((2-methoxy-1-phenylethyl)amino)-N-(5-(5-methyl-1H-pyrazol-1-yl)-1,3,4-thiadiazol-2-yl)-2-oxo-2H-pyran-6-carboxamide]: the IC50 was 20 to 60 nM.

Take `COC[C@H](Nc1cc(C(=O)Nc2nnc(-n3nccc3C)s2)oc(=O)c1OC)C1CC1` (single isomer, unassigned) [Compound 21*]: the IC50 was 5 to 20 nM. Then `COC[C@H]1[C@H](OC)CCN1c1cc(C(=O)Nc2nnc(-n3nccc3C)s2)oc(=O)c1OC` [Compound 211, 3-methoxy-4-((2S,3R)-3-methoxy-2-(methoxymethyl)pyrrolidin-1-yl)-N-(5-(5-methyl-1H-pyrazol-1-yl)-1,3,4-thiadiazol-2-yl)-2-oxo-2H-pyran-6-carboxamide], with 5 to 20 nM. Next, `COc1c(N2CC[C@@H](OC)C2=O)cc(C(=O)Nc2nnc(-n3nccc3C)s2)oc1=O` [Compound 150, (R)-3-methoxy-4-(3-methoxy-2-oxopyrrolidin-1-yl)-N-(5-(5-methyl-1H-pyrazol-1-yl)-1,3,4-thiadiazol-2-yl)-2-oxo-2H-pyran-6-carboxamide]: 5 to 20 nM; `COCCOc1c(NC23CC(C2)C3)cc(C(=O)Nc2nnc(-n3nccc3N)s2)oc1=O` [Compound 210, N-(5-(5-amino-1H-pyrazol-1-yl)-1,3,4-thiadiazol-2-yl)-4-(bicyclo[1.1.1]pentan-1-ylamino)-3-(2-methoxyethoxy)-2-oxo-2H-pyran-6-carboxamide]: 5 to 20 nM.

`COc1c(N[C@H]2CCC[C@H]2C#N)cc(C(=O)Nc2nnc(-n3nccc3C)s2)oc1=O` (single isomer, unassigned) [Compound 74] showed an IC50 of less than 5 nM. Then `COC[C@@H](Cc1ccccc1)Nc1cc(C(=O)Nc2nnc(-n3nccc3C)s2)oc(=O)c1OC` [Compound 170, (R)-3-methoxy-4-((1-methoxy-3-phenylpropan-2-yl)amino)-N-(5-(5-methyl-1H-pyrazol-1-yl)-1,3,4-thiadiazol-2-yl)-2-oxo-2H-pyran-6-carboxamide], with 5 to 20 nM; and `COc1c(NC23CC(C2)C3)cc(C(=O)Nc2nnc(-n3nccc3N)s2)oc1=O` [Compound 178, N-(5-(5-amino-1H-pyrazol-1-yl)-1,3,4-thiadiazol-2-yl)-4-(bicyclo[1.1.1]pentan-1-ylamino)-3-methoxy-2-oxo-2H-pyran-6-carboxamide], with 20 to 60 nM; and `COc1c(NC[C@H](C)OC)cc(C(=O)Nc2nnc(-c3c(Cl)ccn3C)s2)oc1=O` [Compound 193, (S)-N-(5-(3-chloro-1-methyl-1H-pyrrol-2-yl)-1,3,4-thiadiazol-2-yl)-3-methoxy-4-((2-methoxypropyl)amino)-2-oxo-2H-pyran-6-carboxamide], with less than 5 nM.
